Results: patent US20240100083A1, “IMMUNOTHERAPY FOR CANCER” (THE PROVOST, FELLOWS, FOUNDATION SCHOLARS, AND THE OTHER …, priority 2020, published 2024)

System: B16 melanoma cells
Experiment: costimulatory/co-inhibitory molecule expression on B16 melanoma cells (flow cytometry)
Format: cell-based
Parameters: key to Upregulated (√)/No change (—) Costimulatory MHC CI / Upregulated (√)/No change (—) Costimulatory CD40 / Upregulated (√)/No change (—) Costimulatory CD80 / Upregulated (√)/No change (—) Costimulatory CD86 / Upregulated (√)/No change (—) Coinhibitory TIGIT / Upregulated (√)/No change (—) Coinhibitory PD-L1 / Upregulated (√)/No change (—) Coinhibitory PD-1: upregulated (√); no change (—)
Conditions: 24 hours, C90, C100, protasan 40 μg/ml, CpG 4 μg/ml, Etoposide 200 μM, DMXAA 10 μg/ml; for Fold increase in MFI Coinhibitory PD-1 / Fold increase in MFI Coinhibitory PD-L1 / Fold increase in MFI Coinhibitory TIGIT / Fold increase in MFI Costimulatory CD40 / Fold increase in MFI Costimulatory CD80 / Fold increase in MFI Costimulatory CD86 / Fold increase in MFI Costimulatory MHC CI: compared to unstimulated control
Description: Flow cytometric analysis of costimulatory molecule expression on B16-F10 cells: 2×10^5 B16 melanoma cells were stimulated with media or 40 μg/ml, C90, C100 or protasan for 24 hours in 24 well plates. Cells were removed from wells using ice cold PBS-EDTA, transferred to labelled FACS tubes and washed with 2 mL of PBS. Cells were stained with BV510 viability dye (1 in 1000 dilition) for 15 minutes at room temperature. Cells were then washed in PBS, and stained for cell surface markers for 30 minutes at room temperature. Cells were then washed in PBS, resuspended in […] of FACs buffer, with samples acquired via BD FACSCanto and the data analysed using Flowjo™ software (Treestar, Oregon).

Compound	Upregulated (√)/No change (—) Coinhibitory PD-1	Upregulated (√)/No change (—) Coinhibitory PD-L1	Upregulated (√)/No change (—) Coinhibitory TIGIT	Upregulated (√)/No change (—) Costimulatory CD40	Upregulated (√)/No change (—) Costimulatory CD80	Upregulated (√)/No change (—) Costimulatory CD86	Upregulated (√)/No change (—) Costimulatory MHC CI	Fold increase in MFI Coinhibitory PD-1 [fold]	Fold increase in MFI Coinhibitory PD-L1 [fold]	Fold increase in MFI Coinhibitory TIGIT [fold]	Fold increase in MFI Costimulatory CD40 [fold]	Fold increase in MFI Costimulatory CD80 [fold]	Fold increase in MFI Costimulatory CD86 [fold]	Fold increase in MFI Costimulatory MHC CI [fold]
Cc1ccc2c(=O)c3cccc(CC(=O)O)c3oc2c1C [DMXAA]	√	√	√	—	—	—	√	1.2	1.2	1.3	1.1	1.0	1.1	1.2
COc1cc([C@@H]2c3cc4c(cc3[C@@H](O[C@@H]3O[C@@H]5CO[C@@H](C)O[C@H]5[C@H](O)[C@H]3O)[C@H]3COC(=O)[C@H]23)OCO4)cc(OC)c1O [Etoposide]	—	√	√ √	√ √	√ √	√ √	√ √ √	1.0	1.6	1.7	1.9	2.2	1.9	3.0
